Laboratory results as given in patent US6403805B1 (Janssen Pharmaceutica N.V., priority 1995, dated 2002).

Experiments:
[1] = system: dextran-induced oedema formation in mouse ear; test: Dextran-induced oedema formation in mouse ear; type: in vivo, Male Swiss mice; details: vs background blueing value; for inhibition in vivo at 5 mg/kg / inhibition in vivo at 2.5 mg/kg: Mus musculus, 1 h, read-out: % inhibition of the extravasation of the dye
Experimental: Dextran-induced oedema formation in mouse ear Systemic injection of dextran T500 in normal, non-sensitized mice elicits increased vascular permeability, leading to extravasation and oedema of the extremities. When dextran is injected together with a blue dye, blueing of the ears is the most prominent feature of oedematous response. Male Swiss mice weighting 24-26 g were orally pretreated with the test compound dissolved in PEG-200 at different concentrations or solvent. One hour later, the mice were given an intravenous injection with an isotonic saline solution containing 12 mg/ml dextran T500 and 2.6 mg/ml pontamine sky-blue dye, in a volume of 0.1 ml per 10 g body weight. One hour and forty-five minutes later, the animals are sacrificed by ether and their ears removed. Extraction and quantification of the extravasated dye is done as described by Van Wauwe and Goossens (Drug Dev. Res. 1986, 8, 213-218). The extravasation of the dye is characterized by the blueing value which is defined as the concentration of the extracted dye in both ears. The background blueing value was determined once as the mean blueing value obtained by injecting a group of mice with a saline solution containing only dextran T500 and the blue dye. Table 6 lists the percentage inhibition of the extravasation of the dye when compared with the background extravasation of the dye when the test compound was administered at a dose of 5 mg/kg. The test compounds indicated by an asterisk (*) were tested at a dose of 2.5 mg/kg

[2] = target: T1, recombinant human MNL phosphodiesterase type IV B (Homo sapiens, UniProt Q07343); test: Inhibition of recombinant human mononuclear lymphocyte (MNL) phosphodiesterase type IV B produced in insect cells with a baculovirus vector; type: biochemical; details: recombinant human MNL PDE IV B; 0.8 μM 3H-cAMP, pH 8, 37° C.; calculated graphically
T1 construct: made in house; host or cells: insect cells infected with recombinant baculovirus
T1 sequence (Q07343 whole entry): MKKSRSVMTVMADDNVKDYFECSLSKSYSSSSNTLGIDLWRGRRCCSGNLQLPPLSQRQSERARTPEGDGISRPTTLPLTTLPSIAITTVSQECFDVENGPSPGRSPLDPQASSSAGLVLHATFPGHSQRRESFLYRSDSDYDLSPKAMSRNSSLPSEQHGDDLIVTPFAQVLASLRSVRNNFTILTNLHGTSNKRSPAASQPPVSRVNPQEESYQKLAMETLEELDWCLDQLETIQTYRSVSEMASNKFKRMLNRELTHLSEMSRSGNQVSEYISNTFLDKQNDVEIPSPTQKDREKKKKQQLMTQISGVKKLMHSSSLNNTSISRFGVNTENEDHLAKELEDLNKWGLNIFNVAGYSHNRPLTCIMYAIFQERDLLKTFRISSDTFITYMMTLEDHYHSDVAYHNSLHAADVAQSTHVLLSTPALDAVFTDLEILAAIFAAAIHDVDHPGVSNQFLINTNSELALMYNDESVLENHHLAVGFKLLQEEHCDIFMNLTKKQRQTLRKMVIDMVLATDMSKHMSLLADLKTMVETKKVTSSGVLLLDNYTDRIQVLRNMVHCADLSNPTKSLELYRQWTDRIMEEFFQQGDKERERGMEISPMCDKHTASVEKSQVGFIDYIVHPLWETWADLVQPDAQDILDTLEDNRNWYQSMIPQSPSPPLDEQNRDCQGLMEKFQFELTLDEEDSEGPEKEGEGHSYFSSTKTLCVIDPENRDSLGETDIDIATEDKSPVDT
Experimental: Inhibition of recombinant human mononuclear lymphoctye (MNL) phosphodiesterase type IV B produced in insect cells with a baculovirus vector
The alleviating and/or curing effect of the instant compounds on allergic and atopic diseases was assessed by an in vitro assay system to detect an inhibiting effect on the recombinant human MNL phosphodiesterase type IV B.
Seventy-two hours after infection with recombinant baculovirus, the insect cells were harvested and pelleted at 500 g for 5 minutes. The cells were lysed in 10 ml lysis-buffer consisting of 20 mM Tris, 10 mM EGTA, 2 mM Na2EDTA, 1% Triton-X-100, 1 mM Na3VO4, 10 mM NaF, 2 μg/ml of leupeptine, pepstatine and aprotinine, 0.3 μg/ml benzamidine and 100 μg/ml TPCK pH 7.5. After 5 minutes on ice, solubilized cells were centrifuged at 4000 rpm for 15 minutes at 4° C. The resulting supernatant was filtered through a 0.45 μm filter (Millipore) and brought to TBS buffer (50 mM Tris, 150 mM NaCl pH 7.4).
After washing the column with equilibration buffer, PDE IV was eluted in 1.5 ml fractions containing 37.5 μl 1M Tris pH 8. The fractions were dialyzed overnight against 20 mM Tris, 2 mM Na2EDTA and 400 mM NaCl pH 7.5 and tested for PDE IV activity. Identification was done on SDS PAGE and Western Blot (anti-FLAG-M2). Active fractions were pooled, brought to 10% glycerol and stored at −70° C.
The incubation mixture (pH 8) (200 μl) contained 20 mM Tris, 10 mM magnesium sulphate, 0.8 μM ^3H-cAMP (310 mCi/mmole) and the phosphodiesterase type IV, the amount depending on the enzymatic activity.
When the effect of different compounds on phosphodiesterase activity was tested, the medium without cAMP was incubated with the compound(s) or its carrier (DMSO-1% final concentration) for 5 min. The enzymatic reaction was started by addition of ^3H-cAMP and stopped 10 min later after transferring the microtiter-plate in a waterbath at 100° C. for 5 min. After cooling to room temperature, alkaline phosphatase (0.25 μg/ml) was added and the mixture was incubated at 37° C. for 20 min. 100 μl of the mixture was subsequently applied to a GF-B filter-microtiter-plate (Millipore) filled with 300 μl DEAE-Sephadex-A25 suspension. The plate was washed 3 times with 75 μl 20 mM Tris pH 7.5 and the filtrates were collected for counting in the Packard Top Count scintillation counter.
The inhibiting effect of the present compounds on recombinant human MNL phosphodiesterase PDE IV B was measured at different concentrations of the instant compounds. The IC50 values (expressed in M) were calculated graphically from the thus obtained inhibition values.

[3] = oral dose of 5 mg/kg in PEG-200, one hour before i.v. dextran T500/pontamine sky-blue
[4] = oral dose of 5 mg/kg in PEG-200, one hour before i.v. dextran T500/pontamine sky-blue, 5 mg/kg
[5] = asterisk (*): oral dose of 2.5 mg/kg in PEG-200, one hour before i.v. dextran T500/pontamine sky-blue

| IC50 [2] | Compound | inhibition in vivo at 5 mg/kg [1, 3] | further results |
| --- | --- | --- | --- |
|  | COc1ccc(C(O)CN2CCNC2=O)cc1OC (racemic) [Compound 13, ±)-1-[2-(3,4-dimethoxyphenyl)-2-hydroxy-ethyl]-2-imidazolidinone] |  | % inhibition of the extravasation of the dye [1, 3]: 36.3% |
|  | COc1ccc(C(N)CN2CCN(Cc3ccccc3)C2=O)cc1OC (racemic) [Compound 11, (±)-1-[2-amino-2-(3,4-dimethoxyphenyl)ethyl]-3-(phenylmethyl)-2-imidazolidinone] | 26.8% |  |
| 20 nM | CC(Cn1cc[nH]c1=O)c1ccc(OC(F)F)c(OC(F)F)c1 (stereo not shown) [Compound 38] | 76.6% |  |
| < 10 nM | COc1ccc(C(C)Cn2cc[nH]c2=O)cc1OCC1CC1 (racemic) [Compound 10, (±)-1-[2-[3-(cyclopropylmethoxy)-4-methoxyphenyl]propyl]-1,3-dihydro-2H-imidazol-2-one] | 91.9% |  |
|  | COc1ccc(C(O)Cn2cc[nH]c2=O)cc1O (racemic) [Compound 19, (±)-1,3-dihydro-1-[2-hydroxy-2-(3-hydroxy-4-methoxyphenyl)ethyl]-2H-imidazol-2-one] |  | inhibition in vivo at 2.5 mg/kg [1, 5]: 49.4% |
|  | COc1ccc(Cn2cc[nH]c2=O)cc1OC [Compound 84, 1,3-dihydro-1-[(3,4-dimethoxyphenyl)methyl]-2H-imidazol-2-one] | 46.5% |  |
| 9000 nM | COc1ccc(CCN2CCNC2=O)cc1OC [Compound 78, 1-[2-(3,4-dimethoxyphenyl)ethyl]-1,3,4,5-tetrahydro-2H-imidazol-2-one] | 31.3% |  |
| 180 nM | COc1ccc(CCn2cc[nH]c2=O)cc1OC1CCOC1 (stereo not shown) [Compound 35] | 90.1% |  |
| 140 nM | COc1ccc(C(C)Cn2cc[nH]c2=O)cc1OCC1CCCC1 (stereo not shown) [Compound 32] | 76.2% |  |
| 460 nM | CCOc1ccc(CCn2cc[nH]c2=O)cc1OCC [Compound 82] | 28.2% |  |
|  | COc1ccc(CCCn2cc[nH]c2=O)cc1OC [Compound 85, 1,3-dihydro-1-[3-(3,4-dimethoxyphenyl)propyl]-2H-imidazol-2-one] | 31.6% |  |
| 770 nM | COc1ccc(CCn2cc[nH]c2=O)cc1OC [Compound 79, 1,3-dihydro-1-[2-(3,4-dimethoxyphenyl)ethyl]-2H-imidazol-2-one] | 61.6% |  |
|  | COc1ccc(C(C)Cn2cc[nH]c2=O)cc1OCC1CC1 (stereo not shown) [Compound 23, (B)-1-[2-[3-(cyclopropylmethoxy)-4-methoxyphenyl]propyl]-1,3-dihydro-2H-imidazol-2-one] |  | % inhibition of the extravasation of the dye [1, 3]: 72.1% |
|  | O=c1[nH]ccn1CC(F)c1ccc(OC(F)F)c(OCC2CC2)c1 (racemic) [Compound 20, (±)-1-[2-[3-(cyclopropylmethoxy)-4-(difluoromethoxy)phenyl-2-fluoroethyl]-1,3-dihydro-2H-imidazol-2-one] |  | % inhibition of the extravasation of the dye [1, 5]: 94.4% |
| 45 nM | COc1ccc(C(C)Cn2cc[nH]c2=O)cc1OCC1CC1 (stereo not shown) [Compound 22, (A)-1-[2-[3-(cyclopropylmethoxy)-4-methoxyphenyl]propyl]-1,3-dihydro-2H-imidazol-2-one] | 83.5% |  |
| 0.7 nM | CC(Cn1ccnc1O)c1ccc(OC(F)F)c(OC2CCCC2)c1 (stereo not shown) [Compound 37] | 75.7% |  |
| 3200 nM | COc1ccc(C(C)CN2CCNC2=O)cc1OC (stereo not shown) [Compound 80, 1-[2-(3,4-dimethoxyphenyl)propyl]-1,3,4,5-tetrahydro-2H-imidazol-2-one] | 53.4% |  |
| 7300 nM | COc1ccc(C(C)Cn2c(C)c[nH]c2=O)cc1OC (stereo not shown) [Compound 77, 1,3-dihydro-1-[2-(3,4-dimethoxyphenyl)propyl]-5-methyl-2H-imidazol-2-one] | 35.8% |  |
| 2700 nM | COc1ccc(C(Cn2cc[nH]c2=O)OC)cc1OC (stereo not shown) [Compound 83, 1,3-dihydro-1-[2-(3,4-dimethoxyphenyl)-2-methoxy-ethyl]-2H-imidazol-2-one] | 18.6% |  |
|  | COc1ccc(C(CN2CCNC2=O)NC(C)=O)cc1OC (racemic) [Compound 16, (±)-N-[1-(3,4-dimethoxyphenyl)[2-(2-oxo-1-imidazolidinyl)-ethyl]acetamide] |  | % inhibition of the extravasation of the dye [1, 3]: 10.8% |
| 1900 nM | COc1ccc(C(O)(Cn2cc[nH]c2=O)c2ccccc2)cc1OC1CCCC1 (racemic) [Compound 8, (±)-1-[2-[3-(cyclopentyloxy)-4-methoxyphenyl]-2-hydroxy-2-phenylethyl]-1,3-dihydro-2H-imidazol-2-one] | 12.4% |  |
| 1800 nM | 1,3-dihydro-1-[2-(3,4-dimethoxyphenyl)ethyl]-2-methyl-3H-imidazol-2-one [Compound 86] |  | % inhibition of the extravasation of the dye [1, 3]: 39.0% |
| 190 nM | CC(Cn1cc[nH]c1=O)c1ccc(OC(F)F)c(OCc2ccccc2)c1 (stereo not shown) [Compound 34] | 31.1% |  |
| 150 nM | COc1ccc(C(C)Cn2cc[nH]c2=O)cc1OC (stereo not shown) [Compound 76, 1,3-dihydro-1-[2-(3,4-dimethoxyphenyl)propyl]-2H-imidazol-2-one] | 69% |  |
|  | COc1cc(Br)c(CCn2cc[nH]c2=O)cc1OC [Compound 81, 1,3-dihydro-2-[2-(2-bromo-4,5-dimethoxyphenyl)ethyl]-2H-imidazol-2-one] |  | % inhibition of the extravasation of the dye [1, 3]: 34.1% |
| 2300 nM | COc1ccc(C(C)Cn2cc[nH]c2=O)cc1OCC1CCCO1 (stereo not shown) [Compound 33] | 65.8% |  |
|  | CCOC(=O)Cn1ccn(C(C)c2ccc(OC)c(OC3CCCC3)c2)c1=O (racemic) [Compound 9, (±)-ethyl 3-[1-[3-(cyclopentyloxy)-4-methoxy-phenyl]ethyl]-2,3-dihydro-2-oxo-1H-imidazole-1-acetate] | 10.2% |  |
| 240 nM | COc1ccc(C(C)Cn2cc[nH]c2=O)cc1OC1CCOC1 (stereo not shown) [Compound 29] |  | inhibition in vivo at 2.5 mg/kg [1, 5]: 90.7% |

| Compound | IC50 [2] | inhibition in vivo at 5 mg/kg [1, 3] | further results |
| --- | --- | --- | --- |
| COc1ccc(C(C)Cn2cc[nH]c2=O)cc1OC1CCCC1 (stereo not shown) [Compound 6, (A)-1-[2-[3-(cyclopentyloxy)-4-methoxy-phenyl]propyl]-1,3-dihydro-2H-imidazol-2-one] | 4.1 nM |  | % inhibition of the extravasation of the dye [1, 4]: 85.1% |
| COc1ccc(C(C)Cn2cc[nH]c2=O)cc1OC1CCCC1 (racemic) [Compound 1, (±)-1-[2-[3-(cyclopentyloxy)-4-methoxyphenyl]propyl]-1,3-dihydro-2H-imidazol-2-one] | 4.8 nM | 83.1% |  |
| COc1ccc(C(C)Cn2cc[nH]c2=O)cc1OC1CCCC1 (stereo not shown) [Compound 7, (B)-1-[2-[3-(cyclopentyloxy)-4-methoxyphenyl]propyl]-1,3-dihydro-2H-imidazol-2-one] | 43 nM |  | % inhibition of the extravasation of the dye [1, 4]: 67.0% |
